ChEMBL document CHEMBL1135272 (Bioorg Med Chem Lett, 2002)

Experiments:
A549 [1] = assay: Compound was tested for its ability to inhibit tumor necrosis factor alpha (TNF alpha) induced apoptosis in A549 human lung carcinoma cell line; format: functional, cell-based
A549 [2] = assay: Inhibition of NFkB (transcription factor) activation in A549 human lung carcinoma cell line at 20 uM; format: functional
A549 [3] = assay: Compound was tested for its ability to inhibit tumor necrosis factor alpha (TNF alpha) induced apoptosis in A549 human lung carcinoma cell line; NA=Not assayed; format: functional, cell-based
A549 [4] = assay: Inhibition of NFkB (transcription factor) activation in A549 human lung carcinoma cell line; format: functional, cell-based
A549 [5] = assay: (§1) Compound was tested for its ability to inhibit tumor necrosis factor alpha (TNF alpha) induced apoptosis in A549 human lung carcinoma cell line at 20 uM concentration; format: functional, cell-based
A549 [6] = assay: The compound was examined for its ability to block tumor necrosis factor alpha (TNF alpha) induced IL-8 production in A549 human lung carcinoma cell line using an ELISA; format: functional, cell-based
A549 [7] = assay: The compound was tested for its ability to inhibit tumor necrosis factor alpha (TNF alpha) induced apoptosis in A549 human lung carcinoma cell line; format: functional, cell-based
A549 [8] = assay: as §1; format: functional

CCCOC(=O)C1C2C(=O)CC(c3ccc(OCC)cc32)C1C(=O)OCC[Si](C)(C)C (centres undefined)
IC50 (A549 [1]): 10 µM
inhibition at 20 µM (A549 [2]): 43%

CCCOC(=O)C1C2C(=O)CC(c3ccc(O)cc32)C1C(=O)OCCC[Si](C)(C)C (centres undefined)
IC50 (A549 [3]): Not Active
IC50 (A549 [4]): 40 µM

CCCOC(=O)C1C2C(=O)CC(c3ccc(O)cc32)C1C(=O)OCC[Si](C)(C)C (centres undefined)
IC50 (A549 [5]): 3000 nM
IC50 (A549 [6]): 14 µM
IC50 (A549 [4]): 15 µM

C=CCOC(=O)C1C2C(=O)CC(c3ccc(O)cc32)C1C(=O)OCC[Si](C)(C)C (centres undefined)
IC50 (A549 [6]): 21 µM
IC50 (A549 [4]): 21 µM
IC50 (A549 [7]): 5 µM

C[Si](C)(C)CCOC(=O)C1C2CC(=O)C(c3cc(O)ccc32)C1C(=O)OCCN1CCOCC1 (centres undefined)
inhibition at 20 µM (A549 [8]): 43%
inhibition at 20 µM (A549 [2]): 18%

C=CCNC(=O)C1C2C(=O)CC(c3ccc(O)cc32)C1C(=O)OCC[Si](C)(C)C (centres undefined)
inhibition at 20 µM (A549 [8]): 18%
inhibition at 20 µM (A549 [2]): 19%

CCCOC(=O)C1C2C(=O)CC(c3ccc(OCc4ccccn4)cc32)C1C(=O)OCC[Si](C)(C)C (centres undefined)
inhibition at 20 µM (A549 [8]): 47%
inhibition at 20 µM (A549 [2]): 31%

C=CCOC(=O)NC1C2C(=O)CC(c3ccc(O)cc32)C1C(=O)OCC[Si](C)(C)C (centres undefined)
IC50 (A549 [1]): 14 µM
inhibition at 20 µM (A549 [2]): 34%

CCCOC(=O)C1C2C(=O)CC(c3ccccc32)C1C(=O)OCC[Si](C)(C)C (centres undefined)
IC50 (A549 [4]): 45 µM
inhibition at 20 µM (A549 [8]): 38%

C=CCNC(=O)NC1C2C(=O)CC(c3ccc(O)cc32)C1C(=O)OCC[Si](C)(C)C (centres undefined)
inhibition at 20 µM (A549 [8]): 23%
inhibition at 20 µM (A549 [2]): 28%

CCCOC(=O)C1C2C(=O)CC(c3ccc(OCC(=O)O)cc32)C1C(=O)OCC[Si](C)(C)C (centres undefined)
inhibition at 20 µM (A549 [8]): 13%
inhibition at 20 µM (A549 [2]): 3%

CCCOC(=O)C1C2C(=O)CC(c3ccc(O)cc32)C1C(=O)OCCC(C)(C)C (centres undefined)
IC50 (A549 [3]): Not Active
IC50 (A549 [4]): 41 µM

CCCOC(=O)C1C2C(=O)CC(c3ccc(OCCc4ccccn4)cc32)C1C(=O)OCC[Si](C)(C)C (centres undefined)
IC50 (A549 [1]): 4 µM
IC50 (A549 [4]): 27 µM

C[Si](C)(C)CCOC(=O)C1C2CC(=O)C(c3cc(O)ccc32)C1NC(=O)OCc1ccc(-c2ccccc2)cc1 (centres undefined)
inhibition at 20 µM (A549 [8]): 0%
inhibition at 20 µM (A549 [2]): 27%

C[Si](C)(C)CCOC(=O)C1C2CC(=O)C(c3cc(O)ccc32)C1NC(=O)NCc1cccnc1 (centres undefined)
inhibition at 20 µM (A549 [8]): 11%
inhibition at 20 µM (A549 [2]): 30%

C[Si](C)(C)CCOC(=O)C1C2CC(=O)C(c3cc(O)ccc32)C1C(=O)OCc1cccc(F)c1 (centres undefined)
IC50 (A549 [7]): 12 µM
inhibition at 20 µM (A549 [2]): 13%
